# Source: patent publication US11786486B2, “Pharmaceutical compositions comprising 2,3,5-trimethyl-6-nonylcyclohexa-2,5-diene-1,4-dione” (PTC THERAPEUTICS, INC., priority 2021, dated 2023)
# Key:
# [1] = Solubility of Compound 1 in oils, surfactants and co-surfactants; format: physicochemical
# Experimental: Based on the initial screening as shown in Table 1 and based on limits of excipients allowed by FDA, the solubility of Compound 1 in the oils in Table 1A were measured. Based on the solubility data, Labrafac WL 1349 was further pursued.
# A total of 36 different excipients including pharmaceutically acceptable oils, surfactants and co-surfactants were evaluated for Compound 1. Higher solubility of Compound 1 in oils is desirable to increase drug loading.
# [2] = Physical stability on storage (microscope / polarized microscope); format: physicochemical; settings: 25° C./60% RH and 5° C.
# Experimental: Certain combinations of Gelucire 44/14 with Solutol HS15, TPGS and Tween 80 were screened as shown in Table 2 at 200 mg/g concentration of Compound 1. Physical stability was observed microscopically at week one at 25° C./60% RH and at 5° C. Bioperformance was assessed visual observation after 10× dilution in FaSSIF. Based on the crash resistance test performed with ten times dilution with FaSSIF, the most promising formulation combination for Gelucire 44/14 appeared to be 80% w/w Gelucire 44/14, 10% w/w TPGS and 10% w/w Tween 80.
# In the above table and in this paragraph, the % w/w are based on the total weight of the vehicle without compound. The 80% w/w Gelucire 44/14, 10% w/w TPGS and 10% w/w Tween 80 formulation vehicles were further tested at lower Compound 1 concentrations of 150 mg/g (i.e. 150 mg of Compound 1 in 1 g of Compound 1+vehicle) and 100 mg/g (i.e. 100 mg of Compound 1 in 1 g of Compound 1+vehicle) to minimize the crystallization risk upon storage. Physical stability was observed microscopically at week one at 25° C./60% RH and at 5° C. Bioperformance was assessed visual observation after 10× dilution in FaSSIF.
# Physical stability evaluation of both Gelucire 44/14-based and Labrafac-WL-1349-based formulation vehicles was done under polarized microscope. […] Therefore, Labrafac-WL-1349-based formulation was physically stable upon storage.
smiles,measurement,setting,value
"CCCCCCCCCC1=C(C)C(=O)C(C)=C(C)C1=O [Compound 1, 2,3,5-trimethyl-6-nonylcyclohexa-2,5-diene-1,4-dione]",Solubility of Compound 1,"[1]; in Soybean oil, RT",<150 mg/g
same,solubility,"[1]; oil or lipid, in Capryol 90, RT",125 mg/mL
same,solubility,"[1]; oil or lipid, in Capryol PGMC, RT",184 mg/mL
same,solubility,"[1]; oil or lipid, in Corn Oil, RT",115 mg/mL
same,solubility,"[1]; oil or lipid, in Cottonseed Oil, RT",112 mg/mL
same,solubility,"[1]; oil or lipid, in Labrafac Lipo WL1349, RT",141 mg/mL
same,solubility,"[1]; oil or lipid, in Labrafac PG, RT",222 mg/mL
same,solubility,"[1]; oil or lipid, in Labrafil M1944CS, RT",101 mg/mL
same,solubility,"[1]; oil or lipid, in Labrafil M2125CS, RT",119 mg/mL
same,solubility,"[1]; oil or lipid, in Lauroglycol 90, RT",133 mg/mL
same,solubility,"[1]; oil or lipid, in Lauroglycol FCC, RT",160 mg/mL
same,solubility,"[1]; oil or lipid, in Maisine CC, RT",90.3 mg/mL
same,solubility,"[1]; oil or lipid, in Olive oil, RT",135 mg/mL
same,solubility,"[1]; oil or lipid, in Plurol oleique CC 497",50 to 100 mg/mL
same,solubility,"[1]; oil or lipid, in Sesame oil, RT",139 mg/mL
same,solubility,"[1]; oil or lipid, in Soybean Oil, RT",111 mg/mL
same,solubility,"[1]; organic solvent or mixture, in Gelucire 44/14, 45° C.",269 mg/mL
same,solubility,"[1]; organic solvent or mixture, in Labrasol, RT",35.7 mg/mL
same,solubility,"[1]; organic solvent or mixture, in PEG400, 37° C.",11 mg/mL
same,solubility,"[1]; organic solvent or mixture, in Solutol HS15, 37° C.",94 mg/mL
same,solubility,"[1]; organic solvent or mixture, in TPGS, 45° C.",195 mg/mL
same,solubility,"[1]; organic solvent or mixture, in Triethyl citrate, RT",30.1 mg/mL
same,solubility,"[1]; organic solvent or mixture, in Tween 60",50 to 100 mg/mL
same,solubility,"[1]; organic solvent or mixture, in Tween 80",25 to 50 mg/mL
same,Physical stability,"[2]; 150 mg/g in vehicle 80% Gelucire 44/14, 10% TPGS, 10% Tween 80, week one",Crystallization observed
same,Physical stability,"[2]; 200 mg/g in vehicle 70% Gelucire 44/14, 10% TPGS, 20% Tween 80, week one",Crystallization
same,Physical stability,"[2]; 200 mg/g in vehicle 80% Gelucire 44/14, 10% TPGS, 10% Tween 80, week one",Crystallization
same,Physical stability,"[2]; 200 mg/g in vehicle 80% Gelucire 44/14, 20% Tween 80, week one",Crystallization
same,Physical stability,"[2]; 200 mg/g in vehicle 85% Gelucire 44/14, 5% Solutol HS15, 5% TPGS, 5% Tween 80, week one",Crystallization
same,Physical stability,"[2]; 200 mg/g in vehicle 90% Gelucire 44/14, 10% TPGS, week one",Crystallization
same,Physical stability,"[2]; 200 mg/g in vehicle 90% Gelucire 44/14, 10% Tween 80, week one",Crystallization
